From patent publication US12398119B2, “Piperazine azaspiro derivatives” (PFIZER INC., priority 2018, dated 2025)

Target: T1, Human M4 mAChR (Homo sapiens, UniProt P08173)
T1 construct: host or cells: HEK293 (Sor-L9 HEK293 human/M4/GloSensor Cell Clone Number 40)
T1 sequence (P08173 1-479): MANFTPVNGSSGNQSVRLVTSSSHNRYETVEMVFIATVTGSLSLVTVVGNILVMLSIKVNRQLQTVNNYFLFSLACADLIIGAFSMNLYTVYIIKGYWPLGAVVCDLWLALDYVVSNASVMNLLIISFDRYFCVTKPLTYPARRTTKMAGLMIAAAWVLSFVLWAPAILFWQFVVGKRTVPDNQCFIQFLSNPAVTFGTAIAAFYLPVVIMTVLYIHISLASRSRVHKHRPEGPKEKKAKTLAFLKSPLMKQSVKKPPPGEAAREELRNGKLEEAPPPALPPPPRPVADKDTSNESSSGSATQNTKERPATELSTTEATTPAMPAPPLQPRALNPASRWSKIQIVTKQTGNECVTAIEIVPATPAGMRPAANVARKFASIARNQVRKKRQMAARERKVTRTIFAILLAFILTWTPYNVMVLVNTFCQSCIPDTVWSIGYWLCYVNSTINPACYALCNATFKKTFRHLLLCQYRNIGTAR
Experiment: Muscarinic hM4 Agonist GloSensor cAMP Assay
Type: cell-based
Conditions: geometric mean; for Emax: Emax: maximum asymptote of concentration response curve, relative to ACh positive control (EC100) and DMSO, read-out: % maximum effect; for EC50: HEK293 human/M4/GloSensor cells, EC80 isoproterenol, number of determinations in parentheses, read-out: EC50
Procedure: Muscarinic hM4 Agonist GloSensor cAMP Assay Methods
Compounds were prepared in advance of the assay. Test compounds were solubilized in 100% dimethyl sulfoxide (DMSO, Sigma D8418) to a concentration of 30 mM. A 10-point intermediate dilution series using half log dilutions was created in 100% DMSO with a top concentration of 4 mM. The serially diluted compounds were spotted as 200 nL/well in a 384-well plate (Matrix Catalog Number 4325). The final compound concentration range in the assay was […] to 0.3 nM with a final DMSO concentration of 0.25%.
Human M4 mAChR expressing stable cell lines were generated using a parental HEK cell expressing the GloSensor construct (Promega Sor-L9 HEK293 human/M4/GloSensor Cell Clone Number 40). The cells were grown in 90% Dulbecco's Modified Eagle Medium (DMEM, Gibco 11960), 10% fetal bovine serum (FBS, Hyclone CH.30160-03), 1% Penicillin/Streptomycin (Gibco 15070-063), 500 µg/mL Geneticin (Gibco 10131-027), 200 µg/mL Hygromycin B (Invitrogen 10687-010) and 1% Glutamax (Thermo Fisher 35050061).
One day prior to assay, the cells were lifted using dissociation buffer (Gibco 13151-014) and spun in a centrifuge at 250 times gravity for 5 minutes at room temperature. Supernatant was removed and the cell pellet was resuspended in growth media to a concentration of […]. Cells were then added to white poly-d-lysine coated plates (Becton Dickinson 356661) as 40 μL per well (25,000 cells) and incubated overnight (20-24 hours) in a 37° C. humidified incubator with 5% carbon dioxide (C02).
The following day, culture media was removed from the cell plates and replaced with […] equilibration medium containing 88% CO2-independent medium (Invitrogen 18045088), 10% FBS and 2% GloSensor cAMP reagent (Promega E1291) that had been warmed to 37° C. Plates were then covered and incubated for 2 hours at room temperature while protected from light.
To the previously prepared serially diluted compound plates, 200 nL of 4 mM ACh (Sigma A2661, 10 μM final) or 200 nL of 100% DMSO (0.25% final) was added to the positive and negative control wells, respectively. Compound plates were then diluted by adding 16 μL of C02-independent media containing 10% FBS and an EC80 concentration of isoproterenol (Sigma 16504). Prior to compound testing, concentration response curves were run for isoproterenol to determine the EC80 concentration. At the end of the 2 hour equilibration, 10 µL was transferred from the compound plates to the cell plates. The cell plates were incubated an additional 7 minutes at room temperature and then read using a Multi-label EnVision plate reader (Perkin Elmer) for luminescence.
The raw data, expressed as relative light units, was analyzed using Activity Base (IDBS). The percent effect at each compound concentration was calculated based on and relative to the amount of cAMP produced by the positive and negative control wells contained on each assay plate. The positive control wells contained an EC100 concentration of ACh and the negative control wells contained only DMSO. The concentration and % effect values were fit using a four-parameter logistic dose response equation, and the concentration required for 50% effect (EC50) was determined as well as the maximum asymptote of the concentration response curve to define the efficacy.

Row | SMILES | Emax [%] | EC50 [nM]
1 | CCOC(=O)N1CC2(CCC(N3CCN(c4ncccc4N4CCC(F)(F)C4)CC3)C2)C1 (centres unmarked) [Example 29, ethyl 6-{4-[3-(3,3-difluoropyrrolidin-1-yl)pyridin-2-yl]piperazin-1-yl}-2-azaspiro[3.4]octane-2-carboxylate] | 84 | 4.45
2 | CCOC(=O)N1CC2(CCC(N3CCN(c4ncccc4-c4ccc5nccn5c4)CC3)C2)C1 (centres unmarked) [Example 39, ethyl 6-{4-[3-(imidazo[1,2-a]pyridin-6-yl)pyridin-2-yl]piperazin-1-yl}-2-azaspiro[3.4]octane-2-carboxylate] | 59.6 | 11.7
3 | CCOC(=O)N1CC2(CCC(N3CCN(c4cccnc4OC4COC4)CC3)C2)C1 (centres unmarked) [Example 25, ethyl 6-{4-[2-(oxetan-3-yloxy)pyridin-3-yl]piperazin-1-yl}-2-azaspiro[3.4]octane-2-carboxylate] | 83.1 | 5.37
4 | CCOC(=O)N1CC2(CC(N3CCN(c4ncccc4-c4sncc4C)CC3)C2)C1 [Example 31, ethyl 6-{4-[3-(4-methyl-1,2-thiazol-5-yl)pyridin-2-yl]piperazin-1-yl}-2-azaspiro[3.3]heptane-2-carboxylate] | 101 | 13.5
5 | CCOC(=O)N1CC2(CCC(N3CCN(c4ncc(F)cc4-c4cscn4)CC3)C2)C1 (single isomer, unassigned) [Example 26, ethyl 6-{4-[5-fluoro-3-(1,3-thiazol-4-yl)pyridin-2-yl]piperazin-1-yl}-2-azaspiro[3.4]octane-2-carboxylate] | 59.8 | 26.4
6 | CCOC(=O)N1CC2(CCC(N3CCN(c4ncccc4-c4cnc(C#N)cn4)CC3)C2)C1 (single isomer, unassigned) [Example 41, ethyl 6-{4-[3-(5-cyanopyrazin-2-yl)pyridin-2-yl]piperazin-1-yl}-2-azaspiro[3.4]octane-2-carboxylate] | 82.4 | 8.52
7 | CCOC(=O)N1CC2(CC(N3CCN(c4ncccc4-c4cc(C)ns4)CC3)C2)C1 [Example 32, ethyl 6-{4-[3-(3-methyl-1,2-thiazol-5-yl)pyridin-2-yl]piperazin-1-yl}-2-azaspiro[3.3]heptane-2-carboxylate] | 84.3 | 27.8
8 | CCOC(=O)N1CC2(CCC(N3CCN(c4ncccc4-c4cnc(OC)cn4)CC3)C2)C1 (single isomer, unassigned) [Example 2, ethyl 6-{4-[3-(5-methoxypyrazin-2-yl)pyridin-2-yl]piperazin-1-yl}-2-azaspiro[3.4]octane-2-carboxylate] | – | > 10000

More lines, now with the values ahead:

Row | Emax [%] | EC50 [nM] | SMILES
9 | 92.3 | 4.41 | CCOC(=O)N1CC2(CCC(N3CCN(c4ncccc4-c4ccnnc4)CC3)C2)C1 (centres unmarked) [Example 17, ethyl 6-{4-[3-(pyridazin-4-yl)pyridin-2-yl]piperazin-1-yl}-2-azaspiro[3.4]octane-2-carboxylate]
10 | 60.9 | 0.596 | CCOC(=O)N1CC2(CC[C@@H](N3CCN(c4ncccc4-c4cnn(CCCCC#N)c4)CC3)C2)C1 [Example 49, ethyl (6R)-6-(4-{3-[1-(4-cyanobutyl)-1H-pyrazol-4-yl]pyridin-2-yl}piperazin-1-yl)-2-azaspiro[3.4]octane-2-carboxylate]
11 | 66.4 | 0.806 | CCOC(=O)N1CC2(CC[C@@H](N3CCN(c4nccnc4-c4cncs4)CC3)C2)C1 [Example 11, ethyl (6R)-6-{4-[3-(1,3-thiazol-5-yl)pyrazin-2-yl]piperazin-1-yl}-2-azaspiro[3.4]octane-2-carboxylate]
12 | 96.8 | 4.01 | CCOC(=O)N1CC2(CCC(N3CCN(c4ncccc4C)CC3)C2)C1 (single isomer, unassigned) [Example 21, ethyl 6-[4-(3-methylpyridin-2-yl)piperazin-1-yl]-2-azaspiro[3.4]octane-2-carboxylate]
